We go through two compounds from patent US20170049100A1 (priority 2014, published 2017).

For data set [1] the following is noted: cited from earlier work.
The subject of data set [2] is Phytophthora infestans. Kind of data set: microbe, parasite or virus in culture. Format: cell-based. As to conditions: for EC50: Phytophthora infestans, 120 h.
Data set [3] deals with Phytophthora infestans. Format: in vivo. The following applies: applied at the same time as Phytophthora infestans; 5 or 7 days; 0.5-1-3-6 L/ha.
In data set [4] the test system is Phytophthora infestans. The class given is in vivo. As to conditions: preventive; 3 and 6 I/ha; after incubating for 5 days.

≈ marks a conversion by molar mass, not a printed value. Read-outs that look alike come from different tables or passages of the source.

With `CCCCC(CC)CO` (centres unmarked) [2-ethyl-hexanol], the biodegradable in data set [1] (in 5 days) is 100%. The “Effectiveness of 2-ethyl-hexanol (% of control)” value in the data set on Phytophthora infestans [2] (0.000512 μg 2-ethyl-hexanol/mL) is 16.1 % of control; in the data set with Phytophthora infestans [2] (0.00256 μg 2-ethyl-hexanol/mL) it was 42.3 % of control; in the data set on Phytophthora infestans [2] (0.0128 μg 2-ethyl-hexanol/mL), 60.1 % of control; in the data set with Phytophthora infestans [2] (0.064 μg 2-ethyl-hexanol/mL), 71.7 % of control; in the data set with Phytophthora infestans [2] (0.32 μg 2-ethyl-hexanol/mL), 79.8 % of control; in the data set with Phytophthora infestans [2] (1.6 μg 2-ethyl-hexanol/mL), 82.2 % of control. Moreover, the “Effectiveness of 2-ethyl-hexanol (% of control)” value in the data set with Phytophthora infestans [2] (8 μg 2-ethyl-hexanol/mL) is on record as 84.6 % of control. The compound further registered a concentration giving a half-maximal response (EC50) with Phytophthora infestans [2] of 6.8 ng/mL (≈ 0.0522 µM).
For `CCCCCCCCO` [octanol, octan-1-ol], the “development of the pathogen on the surface of potato leaves” value in the data set with Phytophthora infestans [3] is reported as “completely inhibits”. In data set [1] (in 30 days), the biodegradable entry is “more than 70%”. In addition, the “Effectiveness of octanol (% of control)” value was 23.6 % of control with Phytophthora infestans [2] (0.000512 μg octanol/mL); 49.4 % of control in the data set with Phytophthora infestans [2] (0.00256 μg octanol/mL); 72.2 % of control in the data set on Phytophthora infestans [2] (0.0128 μg octanol/mL); 84.8 % of control in the data set on Phytophthora infestans [2] (0.064 μg octanol/mL); 92.5 % of control in the data set on Phytophthora infestans [2] (0.32 μg octanol/mL); 93.3 % of control with Phytophthora infestans [2] (1.6 μg octanol/mL). Besides, the “Effectiveness of octanol (% of control)” value in the data set on Phytophthora infestans [2] (8 μg octanol/mL) is recorded as 94.0 % of control. The EC50 in the data set with Phytophthora infestans [2] stood at 2.7 ng/mL (≈ 0.0207 µM). Moreover, in the data set with Phytophthora infestans [4], the “intensity of the infection of the potato leaves caused by Phytophthora infestans” value was “greatly reduces”.

The EC50 is the concentration that produces a half-maximal response. A high value points to a need for much substance.
